Measurements published in PMC7145288, “New Peptide-Based Pharmacophore Activates 20S Proteasome” (Molecules, 2020).
“Also recorded” adds a separate entry of the source.

Biological target: T1, core proteasome, post glutamyl peptide hydrolyzing (PGPH) activity (Homo sapiens, UniProt P25787+P60900)
T1 construct: Human housekeeping core (20S) proteasome purified from erythrocytes; purchased Boston Biochem, Inc. or Enzo Life Sciences, Inc; host or cells: human erythrocytes (natural source)
Experiment: PGPH peptidase activity of latent 20S proteasome (Z-LLE-AMC)
Format: biochemical
Conditions: 100 μM Z-LLE-AMC, n = 3–4
Method: Human housekeeping core (20S) proteasome purified from erythrocytes was purchased from Boston Biochem, Inc. (Cambridge, MA) or from Enzo Life Sciences, Inc. (Farmingdale, NY). Multiple batches of the proteasomes were used and performed reproducibly. The stock proteasome was diluted to 0.2 mg/mL working solution in “dilution buffer” (50 mM Tris/HCl, pH 8, 20% glycerol). The following model peptide substrates, all releasing fluorescent 7-amino-4-methylcoumarin (AMC) reporter group after cleavage, were used: succinyl-LeuLeuValTyr-AMC (for the ChT-L peptidase; SucLLVY-AMC; Bachem Bioscience Inc., Philadelphia, PA), butoxycarbonyl-LeuArgArg-AMC (T-L; Bachem Bioscience Inc., Philadelphia, PA) and carbobenzoxy- LeuLeuGlu-AMC (PGPH; Enzo Life Sciences Inc., Farmingdale, NY). The substrates were used at concentration of 50 μM (ChT-L) or 100 μM (T-L, PGPH). […] After mixing, the plate was transferred to a Fluoroskan Ascent plate reader (Thermo Fisher Scientific Inc., Waltham, MA) for 1 h (37 °C), with fluorescence readouts once per minute. […] The reaction rates were calculated from a linear segment of kinetic curves constructed from measurements in 1-min intervals. Reaction rates were calculated using a linear fit performed with the Slope Analyser and Enzyme Kinetics applications launched within Origin Pro 2019 (OriginLab Corporation, Northampton, MA). […]

Row | Structure (SMILES) | Effect on PGPH activity (in words)
1 | NCCCC[C@H](NC(=O)[C@H](CCCCN)NC(=O)[C@H](CCCCN)NC(=O)c1cc(NC(=O)[C@H](CCCCN)NC(=O)[C@H](CCCCN)NC(=O)[C@@H](N)CCCCN)cc(NC(=O)[C@H](CCCCN)NC(=O)[C@H](CCCCN)NC(=O)[C@@H](N)CCCCN)c1)C(=O)O [(8)] | weak inhibitory effects; also recorded: did not seem to significantly affect
2 | N=C(N)NCCC[C@H](NC(=O)CN)C(=O)N[C@@H](CCCCN)C(=O)N[C@@H](CCCCN)C(=O)N[C@@H](CCCNC(=N)N)C(=O)N[C@@H](CCCNC(=N)N)C(=O)N[C@@H](CCC(N)=O)C(=O)N1Cc2ccccc2C[C@H]1C(=O)N1[C@@H](C(=O)N[C@@H](CCCNC(=N)N)C(=O)N2CCC[C@H]2C(=O)N[C@@H](CO)C(=O)O)C[C@H]2CCCC[C@H]21 [(5)] | weak inhibitory effects; also recorded: did not seem to significantly affect
